Measurements from the NIST ThermoML archive (doi:10.1016/j.tca.2009.06.015).

Legend:
[1] = refractive index (Na D-line) (dimensionless); xn = mol fraction of the nth substance listed; conditions: 101 kPa, Liquid, Standard Abbe refractometry
[2] = xn = mol fraction of the nth substance listed; conditions: 101 kPa, Liquid; for viscosity: Capillary tube (Ostwald / Ubbelohde) method; for mass density: Vibrating tube method

CCCCCC(C)O (stereo unspecified) [2-heptanol] + CC#N
Conditions | mass density, [2] [kg/m3] | refractive index, [1] | viscosity, [2] [mPa·s]
293.15 K, x2 = 0 | 817.18 | 1.4206 | 6.52
293.15 K, x2 = 0.1142 | 814.97 | 1.417 | 4.326
293.15 K, x2 = 0.1947 | 813.16 | 1.4145 | 3.337
293.15 K, x2 = 0.251 | 811.78 | 1.4124 | 2.77
293.15 K, x2 = 0.3491 | 809.24 | 1.4094 | 2.133
293.15 K, x2 = 0.4525 | 806.32 | 1.4042 | 1.584
293.15 K, x2 = 0.5436 | 803.52 | 1.3986 | 1.239
293.15 K, x2 = 0.6702 | 798.9 | 1.3881 | 0.8636
293.15 K, x2 = 0.7574 | 795.18 | 1.3793 | 0.6732
293.15 K, x2 = 0.877 | 789.27 | 1.3637 | –
293.15 K, x2 = 0.9588 | 784.77 | 1.3516 | 0.3857
298.15 K, x2 = 0 | 813.33 | 1.4188 | 5.33
298.15 K, x2 = 0.1142 | 811.07 | 1.4158 | 3.583
298.15 K, x2 = 0.1947 | 809.19 | 1.4146 | 2.821
298.15 K, x2 = 0.251 | 807.74 | 1.4129 | 2.402
298.15 K, x2 = 0.3491 | 805 | 1.4094 | 1.853
298.15 K, x2 = 0.4525 | 802.07 | 1.4039 | 1.395
298.15 K, x2 = 0.5436 | 799.12 | 1.3979 | 1.106
298.15 K, x2 = 0.6702 | 794.43 | 1.3873 | 0.7855
298.15 K, x2 = 0.7574 | 790.57 | 1.3781 | 0.6191
298.15 K, x2 = 0.877 | 784.26 | 1.3629 | –
298.15 K, x2 = 0.9588 | 779.64 | 1.3503 | 0.3652
303.15 K, x2 = 0 | 809.44 | 1.4165 | 4.301
303.15 K, x2 = 0.1142 | 807.06 | 1.4154 | 3.03
303.15 K, x2 = 0.1947 | 805.14 | 1.4147 | 2.409
303.15 K, x2 = 0.251 | 803.62 | 1.4135 | 2.066
303.15 K, x2 = 0.3491 | 800.93 | 1.4093 | 1.619
303.15 K, x2 = 0.4525 | 797.79 | 1.4029 | 1.251
303.15 K, x2 = 0.5436 | 794.69 | 1.3973 | 0.9893
303.15 K, x2 = 0.6702 | 789.88 | 1.3863 | 0.7174
303.15 K, x2 = 0.7574 | 786 | 1.3774 | 0.5762
303.15 K, x2 = 0.877 | 779.5 | 1.362 | –
303.15 K, x2 = 0.9588 | 774.36 | 1.3481 | 0.3483
308.15 K, x2 = 0 | 805.5 | 1.4143 | 3.528
308.15 K, x2 = 0.1142 | 803.17 | 1.4139 | 2.578
308.15 K, x2 = 0.1947 | 801.12 | 1.413 | 2.072
308.15 K, x2 = 0.251 | 799.49 | 1.4116 | 1.816
308.15 K, x2 = 0.3491 | 796.53 | 1.4079 | 1.466
308.15 K, x2 = 0.4525 | 793.31 | 1.4022 | 1.112
308.15 K, x2 = 0.5436 | 790.11 | 1.3958 | 0.8985
308.15 K, x2 = 0.6702 | 785.23 | 1.3845 | 0.6625
308.15 K, x2 = 0.7574 | 781.16 | 1.3744 | 0.539
308.15 K, x2 = 0.877 | 774.15 | 1.3576 | 0.4454
308.15 K, x2 = 0.9588 | 768.93 | 1.3452 | 0.3326

CCCCC(C)O (stereo unspecified) [2-hexanol] + CC#N
Conditions | mass density, [2] [kg/m3] | refractive index, [1] | viscosity, [2] [mPa·s]
293.15 K, x2 = 0 | 814.08 | 1.4135 | 5.155
293.15 K, x2 = 0.0964 | 812.14 | 1.4103 | 3.491
293.15 K, x2 = 0.1813 | 810.22 | 1.4077 | 2.696
293.15 K, x2 = 0.2574 | 808.34 | 1.4051 | 2.128
293.15 K, x2 = 0.3436 | 806.07 | 1.4014 | 1.684
293.15 K, x2 = 0.4483 | 803.11 | 1.3972 | 1.276
293.15 K, x2 = 0.5398 | 800.33 | 1.3917 | 1.006
293.15 K, x2 = 0.6495 | 796.76 | 1.3837 | 0.7676
293.15 K, x2 = 0.758 | 792.88 | 1.3739 | 0.582
293.15 K, x2 = 0.8733 | 788.19 | 1.3621 | 0.4444
293.15 K, x2 = 0.9579 | 784.29 | 1.351 | 0.3758
298.15 K, x2 = 0 | 810.14 | 1.4116 | 4.1
298.15 K, x2 = 0.0964 | 808.14 | 1.4096 | 2.933
298.15 K, x2 = 0.1813 | 806.14 | 1.4078 | 2.284
298.15 K, x2 = 0.2574 | 804.19 | 1.4054 | 1.84
298.15 K, x2 = 0.3436 | 801.82 | 1.4022 | 1.475
298.15 K, x2 = 0.4483 | 798.72 | 1.3975 | 1.133
298.15 K, x2 = 0.5398 | 795.82 | 1.3924 | 0.9062
298.15 K, x2 = 0.6495 | 792.09 | 1.3837 | 0.6995
298.15 K, x2 = 0.758 | 788.02 | 1.373 | 0.5384
298.15 K, x2 = 0.8733 | 783.08 | 1.3595 | 0.4184
298.15 K, x2 = 0.9579 | 779.02 | 1.348 | 0.3583
303.15 K, x2 = 0 | 806.13 | 1.4093 | 3.41
303.15 K, x2 = 0.0964 | 804.04 | 1.4082 | 2.491
303.15 K, x2 = 0.1813 | 801.94 | 1.4064 | 1.967
303.15 K, x2 = 0.2574 | 799.91 | 1.4044 | 1.61
303.15 K, x2 = 0.3436 | 797.49 | 1.4021 | 1.301
303.15 K, x2 = 0.4483 | 794.38 | 1.3979 | 1.017
303.15 K, x2 = 0.5398 | 791.33 | 1.3925 | 0.8212
303.15 K, x2 = 0.6495 | 787.45 | 1.3839 | 0.6409
303.15 K, x2 = 0.758 | 783.07 | 1.374 | 0.5036
303.15 K, x2 = 0.8733 | 777.74 | 1.3596 | 0.3943
303.15 K, x2 = 0.9579 | 773.37 | 1.345 | 0.3411
308.15 K, x2 = 0 | 802.06 | 1.4077 | 2.819
308.15 K, x2 = 0.0964 | 799.97 | 1.4069 | 2.134
308.15 K, x2 = 0.1813 | 797.84 | 1.4061 | 1.708
308.15 K, x2 = 0.2574 | 795.74 | 1.4049 | 1.42
308.15 K, x2 = 0.3436 | 793.18 | 1.4026 | 1.155
308.15 K, x2 = 0.4483 | 789.88 | 1.3979 | 0.9154
308.15 K, x2 = 0.5398 | 786.73 | 1.3925 | 0.7511
308.15 K, x2 = 0.6495 | 782.83 | 1.3844 | 0.5933
308.15 K, x2 = 0.758 | 778.36 | 1.3745 | 0.4724
308.15 K, x2 = 0.8733 | 772.84 | 1.361 | 0.3759
308.15 K, x2 = 0.9579 | 768.23 | 1.3469 | 0.3263
